Converted amounts (≈) assume the structure as drawn. Read-outs that look alike come from different tables or passages of the source.
Legend:
Format in all cases: cell-based
[1] = tested on: Pseudomonas aeruginosa; assay: MIC, dilutions in liquid medium, alone and combined with NXL105; settings: Pseudomonas aeruginosa
Procedure: (§1) In vitro activity, method of dilutions in liquid medium:
A series of test 96-well microtiter plates are prepared in which the same quantity of sterile nutritive medium is distributed. Increasing quantities of the compound to be studied, namely the antibacterial compound alone and the inventive combination with the compound of formula (I) of example 1, are distributed in each plate in the respective proportions 2:1 and 4:1, and then each plate is inoculated with a bacterial strain of Pseudomonas aeruginosa. After 24 h of incubation in a 37° C. oven, growth inhibition is evaluated by transillumination, which makes it possible to determine the minimum inhibitory concentrations (MICS) expressed in μg/ml.

[2] = tested on: K. oxytoca; assay: as above; settings: Klebsiella oxytoca, read-out: MIC
[3] = tested on: E. cloacae; assay: as above; settings: Enterobacter cloacae, read-out: MIC
Procedure: as §1
(§2) A series of test 96-well microtiter plates are prepared in which the same quantity of sterile nutritive medium is distributed. […] After 24 h of incubation in a 37° C. oven, growth inhibition is evaluated by transillumination, which makes it possible to determine the minimum inhibitory concentrations (MICS) expressed in μg/ml.

[4] = tested on: K. pneumoniae; assay: as above; settings: Klebsiella pneumoniae, read-out: MIC
Procedure: as §1, §2

[5] = tested on: C. freundii; assay: as above; settings: Citrobacter freundii, read-out: MIC
[6] = tested on: E. coli; assay: microbe, parasite or virus in culture; settings: Escherichia coli
Procedure: as §1, §2

CC(C)(O/N=C(\C(=O)N[C@@H]1C(=O)N2C(C(=O)[O-])=C(C[n+]3ccccc3)CS[C@H]12)c1csc(N)n1)C(=O)O [Ceftazidime]
MIC ([1]; ATCC27853, P. aeruginosa ATCC 27853): 0.5 µg/mL
MIC ([1]; P. aeruginosa 391HG2): > 32 µg/mL
MIC ([1]; P. aeruginosa 391HG21): > 32 µg/mL
MIC ([1]; P. aeruginosa 391HG38): > 32 µg/mL
MIC ([1]; P. aeruginosa 391HG39): 1 µg/mL
MIC ([1]; P. aeruginosa 391HG58): > 32 µg/mL
MIC ([1]; P. aeruginosa 391HG118): 4 µg/mL
MIC ([1]; P. aeruginosa 391HG123): 32 µg/mL
MIC ([1]; P. aeruginosa 391HG158): > 32 µg/mL
MIC ([1]; P. aeruginosa 391HG271): > 32 µg/mL
MIC ([1]; P. aeruginosa 391HG329): > 32 µg/mL
MIC ([1]; P. aeruginosa 391K1455): 32 µg/mL
MIC ([1]; P. aeruginosa 391K1523): 16 µg/mL
MIC ([1]; P. aeruginosa 391K1525): 32 µg/mL
MIC ([1]; P. aeruginosa 391K1536): 32 µg/mL
MIC ([1]; P. aeruginosa 391K2376): 32 µg/mL
MIC ([1]; P. aeruginosa 391K2379): 32 µg/mL
MIC ([1]; P. aeruginosa 391K2415): 32 µg/mL
MIC ([1]; P. aeruginosa 391KB9): > 32 µg/mL
MIC ([1]; P. aeruginosa 391KB14): 32 µg/mL
MIC ([1]; P. aeruginosa 391KB21): > 32 µg/mL
MIC ([1]; P. aeruginosa 391KB33): 32 µg/mL
MIC ([1]; P. aeruginosa 391KB38): > 32 µg/mL
MIC ([1]; P. aeruginosa 391KB62): > 32 µg/mL
MIC ([1]; P. aeruginosa 391KB68): > 32 µg/mL
MIC ([1]; P. aeruginosa 391KB90): > 32 µg/mL
MIC ([1]; P. aeruginosa 391KB91): > 32 µg/mL
MIC ([1]; P. aeruginosa 391KB99): > 32 µg/mL
MIC ([1]; P. aeruginosa 391KB103): 32 µg/mL
MIC ([1]; P. aeruginosa 391KB105): > 32 µg/mL
MIC ([1]; P. aeruginosa 391KB106): 32 µg/mL
MIC ([1]; P. aeruginosa 391KB107): > 32 µg/mL
MIC ([1]; P. aeruginosa 391KB114): > 32 µg/mL
MIC ([1]; P. aeruginosa 391KB127): > 32 µg/mL
MIC ([1]; P. aeruginosa 391KB135): > 32 µg/mL
MIC ([1]; P. aeruginosa 391KB136): > 32 µg/mL
MIC ([1]; P. aeruginosa 391KB137): > 32 µg/mL
MIC ([1]; P. aeruginosa 391KB138): > 32 µg/mL
MIC ([1]; P. aeruginosa 391KB139): > 32 µg/mL
MIC ([1]; P. aeruginosa 391KB140): 16 µg/mL
MIC ([1]; P. aeruginosa 391KB141): > 32 µg/mL
MIC ([1]; P. aeruginosa 391KB142): > 32 µg/mL
MIC ([1]; P. aeruginosa 391KB143): > 32 µg/mL
MIC ([1]; P. aeruginosa 391KB144): > 32 µg/mL
MIC ([1]; P. aeruginosa 391QBR2): > 32 µg/mL
MIC ([1]; P. aeruginosa 391QBR3): > 32 µg/mL
MIC ([1]; P. aeruginosa 391QBR4): > 32 µg/mL
MIC ([1]; P. aeruginosa 391QBR5): > 32 µg/mL
MIC ([1]; P. aeruginosa 391QBR7): > 32 µg/mL
MIC ([1]; P. aeruginosa 391QBR8): > 32 µg/mL
MIC ([1]; P. aeruginosa 391QBR9): > 32 µg/mL
MIC ([1]; P. aeruginosa 391QBR10): > 32 µg/mL
MIC ([1]; P. aeruginosa C3719): > 32 µg/mL
MIC ([2]; K. oxytoca 1431, TEM-129): > 32 µg/mL
MIC ([2]; K. oxytoca 16944, OXY-2, TEM-1): > 32 µg/mL
MIC ([3]; 24 h, E. cloacae 7506, KPC-2 + TEM-1 + KLUC-2): > 32 µg/mL
MIC ([3]; E. cloacae (no alias), AmpC): > 32 µg/mL
MIC ([3]; E. cloacae, AmpC): 32 µg/mL
MIC ([4]; 24 h, K. pneumoniae 60, SHV-2 + TEM-2 + PER): > 32 µg/mL
MIC ([4]; 24 h, K. pneumoniae 157, SHV-5 + TEM-26): > 32 µg/mL
MIC ([4]; 24 h, K. pneumoniae 181, SHV-5 + TEM-10): > 32 µg/mL
MIC ([4]; 24 h, K. pneumoniae 236, SHV-5 + TEM-10): > 32 µg/mL
MIC ([4]; 24 h, K. pneumoniae 238, SHV-2 + TEM-12 + CTX-M-2): > 32 µg/mL
MIC ([4]; 24 h, K. pneumoniae 243, SHV-5 + TEM-63): > 32 µg/mL
MIC ([4]; 24 h, K. pneumoniae 253, SHV-2 + TEM-12 + CTX-M-2): > 32 µg/mL
MIC ([4]; 24 h, K. pneumoniae 427, SHV-1 + TEM-1B + CTX-M-3): > 32 µg/mL
MIC ([4]; 24 h, K. pneumoniae 441, SHV-1 + TEM-2 + PER): > 32 µg/mL
MIC ([4]; 24 h, K. pneumoniae 444, SHV-5 + TEM-2 + PER): > 32 µg/mL
MIC ([4]; 24 h, K. pneumoniae 449, SHV-1 + TEM-2 + PER): > 32 µg/mL
MIC ([4]; 24 h, K. pneumoniae 465, TEM-1B + CTX-M-2): > 32 µg/mL
MIC ([4]; 24 h, K. pneumoniae 1734, FOX-3 + TEM-1): > 32 µg/mL
MIC ([4]; 24 h, K. pneumoniae 9701, CMY-4 + TEM-1): > 32 µg/mL
MIC ([4]; 24 h, K. pneumoniae KOL, MOX-2 + SHV-5 + TEM-1): > 32 µg/mL
MIC ([4]; 24 h, K. pneumoniae Patient 1BHR, VIM-4 + CTX-M-15 = CMY-4 + TEM-1): > 32 µg/mL
MIC ([4]; 24 h, K. pneumoniae Patient F, VIM-1 + SHV-5): > 32 µg/mL
MIC ([4]; 24 h, K. pneumoniae SLK54, ACC-1 + TEM-1): > 32 µg/mL
MIC ([4]; 24 h, K. pneumoniae TN58467, DHA-1 + SHV-2a + TEM-1): > 32 µg/mL
MIC ([4]; 24 h, K. pneumoniae Tunisie clone K1, CTX-M-16 + OXA-1): > 32 µg/mL
MIC ([4]; 24 h, K. pneumoniae Tunisie clone K4, CTX-M-15 + TEM-1 + OXA-1): > 32 µg/mL
MIC ([4]; ATCC700603, K. pneumoniae ATCC 700603, SHV-18): > 32 µg/mL
MIC ([4]; K. pneumoniae 26, SHV-5): > 32 µg/mL
MIC ([4]; K. pneumoniae CL5761, KPC-3): > 32 µg/mL
MIC ([4]; K. pneumoniae CL5762, KPC-3): > 32 µg/mL
MIC ([4]; K. pneumoniae CL5763, KPC-3): > 32 µg/mL
MIC ([4]; K. pneumoniae KP04, CTX-M-14): 32 µg/mL
MIC ([4]; K. pneumoniae VA8, KPC-3): > 32 µg/mL
MIC ([4]; K. pneumoniae VAKP, KPC-2): > 32 µg/mL
MIC ([4]; K. pneumoniae YC, KPC-2): > 32 µg/mL
MIC ([5]; 24 h, C. freundii (no alias), AmpC + TEM-1): > 32 µg/mL
MIC ([5]; C. freundii (no alias, table row r121), AmpC): > 32 µg/mL
MIC ([5]; C. freundii (no alias, table row r122), AmpC): > 32 µg/mL
MIC ([5]; C. freundii (no alias, table row r123), AmpC): > 32 µg/mL
MIC ([5]; C. freundii (no alias, table row r125), AmpC): 16 µg/mL
MIC ([6]; 24 h, E. coli 2138, KPC-2 + TEM-1): > 32 µg/mL
MIC ([6]; 24 h, E. coli (no alias), CTX-M-15 + TEM-1 + OXA-1): > 32 µg/mL
MIC ([6]; 24 h, E. coli IND, VEB-1 + CMY-2): > 32 µg/mL
MIC ([6]; 24 h, E. coli TN06, CTX-M-2 + TEM-1): 16 µg/mL
MIC ([6]; 24 h, E. coli TN13, CTX-M-14 + CMY-2 + TEM-1): > 32 µg/mL
MIC ([6]; 24 h, E. coli Tunisie clone E4, CTX-M-16 + TEM-1): > 32 µg/mL
MIC ([6]; E. coli (no alias), Cephalosporinase, read-out: MIC): > 32 µg/mL
MIC ([6]; E. coli (no alias), SHV-4): > 32 µg/mL
MIC ([6]; E. coli (no alias), TEM-3): 32 µg/mL (≈ 58.5 µM)
